The target of the assay is PKA (Homo sapiens, UniProt P17612). The experiment in a line: PKA kinase reaction, ADP luminescent enzyme-coupled assay. Format: biochemical. The settings on record: 5 μM ATP, 30 μM Kemptide, 2.5 nM PKA, 90 minutes at room temperature; FIGS. 4A-4B. How it is done: Assay Procedures 1. Add 10 μl reagent A to 30 μl kinase reaction mixtures and incubate at RT. 2. Add 10 μl reagent B and read luminescence immediately.
At the end of incubation, 10 μl Reagent B were added and luminescence was measured. Each data point represents the average of 3 repeats.

For `O=S(=O)(NCCNC/C=C/c1ccc(Br)cc1)c1cccc2cnccc12` [H89], the “luminescence signals (PKA activity) with increasing amounts of inhibitor” value was “decreased luminescence signals in a dose dependent manner”.

The values above are taken from patent publication US8420341B2, “Methods for measuring ADP” (Genewiz Inc., Suzhou, priority 2007, dated 2013).
